How the values were obtained:
[1] = target: T1, trypanothione synthetase of L. infantum (LiTryS) (Leishmania infantum, UniProt A4I2Z3); assay: TryS activity screening assay on recombinant LiTryS; assay type: biochemical; details: read-out: LiTryS activity [% at 30 μM]
Summary of the method: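 N-His-tagged TryS from E. coli, purified by IMAC and SEC; end-point reaction with 150 μM ATP, 2 mM Spd, GSH 0.05 mM (TbTryS) or 0.25 mM (LiTryS), enzyme 3*10^−5 (TbTryS) or 2*10^−5 (LiTryS) μmol*min^-1*mL^-1. Stopped after 15 min with BIOMOL GREEN; A650 activity relative to blank-corrected DMSO control.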

[2] = Kinetic aqueous solubility by nephelometry; assay type: physicochemical; details: phosphate-buffered saline, aqueous buffer, kinetic from dmso stock, PBS pH 7.4, 1% DMSO, 25°C, logS = decadic logarithm of molar solubility [M]
Description: (§1) Phosphate-buffered saline pH 7.4 was prepared according to the European Pharmacopeia 10.4 by dissolving 2.38 g sodium monohydrogen phosphate dodecahydrate, 0.19 g potassium dihydrogen phosphate and 8.0 g sodium chloride in demineralised water (to a total volume of 1000 mL). The pH was adjusted to a value of 7.4 with hydrochloric acid. The buffer was filtered through a 0.45 μm membrane filter (Chromafil® Xtra PES-45/25) before use.
The kinetic aqueous solubility was determined by nephelometry. The measurements were performed on the NEPHELOstar Plus, with accompanying software Omega 5.11 and MARS 3.20 (BMG LABTECH, Ortenberg, Germany). Generally, 2 dilution series of 1–2 weighed portions of each substance were measured. First, stock solutions of the compounds were prepared in DMSO. A series of dilutions in DMSO were prepared from one stock solution to obtain at least 3 concentrations below and 3 concentrations above the precipitation point in the measured series. The specific concentrations were usually measured as duplicates.
The 96-well plate (Corning UV transparent flat-bottom 96-well plate, Corning Incorporated, Kennenbunk, ME, USA) was inspected for contamination and scratches and measured without samples prior to the solubility measurement of the compounds. 198 μL of phosphate-buffered saline pH 7.4 was placed in a 96 well plate for each well to be measured. 2 μL of a DMSO solution was added and immediately mixed by moving the pipette plunger. This solution either contained no substance—and served as a blank for the measurement (3 wells)—or the respective DMSO dilution of the substance (2–4 wells). The concentration of the solvent DMSO in each measured solution was 1%. The concentration of the compound corresponds to a 1:100 dilution compared to the respective DMSO dilution. The well plate bottom was cleaned with a lint-free cloth and compressed air and inspected for impurities before measurement. After shaking at 500 rpm for 10 s (double orbital), the measurement was carried out in the nephelometer with the laser intensity set to 80% and beam focus of 2.5 mm at a temperature of 25°C.
The obtained measuring points, relative nephelometric units (RNU) per compound concentration, were used to model two straight lines: one straight line with constant low readings and slope → 0 characterises the concentration range where no precipitation has taken place yet; The other straight line has a steep slope and increase of the RNU per concentration and characterises the concentrations at which precipitation takes place in the respective sample vessels.
The evaluation was carried out by calculating the two straight lines and their point of intersection. Outliers and values in a saturation range for the kick-off curve (usually >800 kRNU) were not used to create the straight lines and are listed separately in the evaluation file. […] The x-value of the intersection of the two straight lines represents the kinetic solubility. The results of two dilution series are additionally indicated as range (in brackets). For measurements of 3 or more series, a mean value with standard deviation is provided. The logS value describes the decadic logarithm of the molar solubility: logS (molar solubility [M]).

[3] = Thermodynamic aqueous solubility, shake-flask method and HPLC-UV; assay type: physicochemical; details: phosphate-buffered saline, aqueous buffer, thermodynamic from solid, PBS pH 7.4, 25°C, up to 72 h, HPLC-UV, logS of molar solubility [M]
Description: as §1
The thermodynamic aqueous solubility was determined by a miniaturised shake-flask method. […] A negative control with the buffer (400 μL) was incubated for every time point and measured likewise. After incubation for 24 h, 48 h and 72 h, the vials were checked for undissolved compound; then the filter plunger was punched into the vial for filtration. […] The calibration curve was obtained from at least three dilutions and five measuring points from a DMSO stock solution of the respective compound.

[4] = system: Crithidia fasciculata TryS (CfTryS); design: method as in ref 24–26 = [24]; 24 Stuhlmann F, Jäger T, Flohé L, Schinzer D, inventors. N 5 -substituted benzo[2,3]azepino[4,5- b ]indol-6-ones for treating tropical diseases. European Patent Office patent EP 1 757 607 A1. 2007 Feb || [25]; PMID 27070550; doi:10.1371/journal.pntd.0004617; 25 Benítez D , Medeiros A , Fiestas L , Panozzo-Zenere EA , Maiwald F , Prousis KC , et al . Identification of novel chemical scaffolds inhibiting trypanothione synthetase from pathogenic trypanosomat || [26]; PMID 32588679; doi:10.1080/14756366.2020.1780227; 26 Medeiros A , Benítez D , Korn RS , Ferreira VC , Barrera E , Carrión F , et al . Mechanistic and biological characterisation of novel N 5 -substituted paullones targeting the biosynthesis of trypan; details: cited from earlier work
[5] = system: bloodstream form of T. b. brucei strain 427; design: method as in PMID 27070550; details: displayed for comparison, read-out: T. b. brucei (BS) [EC50; cited from earlier work
LiTryS = system: LiTryS; design: method as in ref 25, 26 = [25]; PMID 27070550; doi:10.1371/journal.pntd.0004617; 25 Benítez D , Medeiros A , Fiestas L , Panozzo-Zenere EA , Maiwald F , Prousis KC , et al . Identification of novel chemical scaffolds inhibiting trypanothione synthetase from pathogenic trypanosomat || [26]; PMID 32588679; doi:10.1080/14756366.2020.1780227; 26 Medeiros A , Benítez D , Korn RS , Ferreira VC , Barrera E , Carrión F , et al . Mechanistic and biological characterisation of novel N 5 -substituted paullones targeting the biosynthesis of trypan; details: versus substrates Spd, Gsp, ATP, GSH; cited from earlier work
[6] = system: trypanothione synthetase of T. b. brucei (TbTryS); design: method as in PMID 27070550; details: cited from earlier work
[7] = target: T1, trypanothione synthetase of L. infantum (LiTryS); details: Fig 3, known paullones; cited from earlier work
[8] = system: L. infantum amastigotes (intracellular, in J774.A1 macrophages); assay: Viability assay for L. infantum amastigotes; assay type: cell-based; details: Leishmania infantum, J774.A1, 24 h, read-out: L. infantum amastigote viability [% at 20 μM]
Summary of the method: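 Luciferase-expressing L. infantum metacyclic promastigotes (MHOM/MA/67/ITMAP263) infected J774.A1 murine macrophages at 1:10 for 24 h at 37 °C, 5% CO2. After compound treatment, a further 24 h incubation followed. Percent amastigote viability, in triplicate, was normalised to host-cell density by a propidium iodide correction factor.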

TryS = system: TryS; design: method as in Torrie et al. 18; details: ref Torrie et al. 18; cited from earlier work

T1 sequence (A4I2Z3 entry or part of it): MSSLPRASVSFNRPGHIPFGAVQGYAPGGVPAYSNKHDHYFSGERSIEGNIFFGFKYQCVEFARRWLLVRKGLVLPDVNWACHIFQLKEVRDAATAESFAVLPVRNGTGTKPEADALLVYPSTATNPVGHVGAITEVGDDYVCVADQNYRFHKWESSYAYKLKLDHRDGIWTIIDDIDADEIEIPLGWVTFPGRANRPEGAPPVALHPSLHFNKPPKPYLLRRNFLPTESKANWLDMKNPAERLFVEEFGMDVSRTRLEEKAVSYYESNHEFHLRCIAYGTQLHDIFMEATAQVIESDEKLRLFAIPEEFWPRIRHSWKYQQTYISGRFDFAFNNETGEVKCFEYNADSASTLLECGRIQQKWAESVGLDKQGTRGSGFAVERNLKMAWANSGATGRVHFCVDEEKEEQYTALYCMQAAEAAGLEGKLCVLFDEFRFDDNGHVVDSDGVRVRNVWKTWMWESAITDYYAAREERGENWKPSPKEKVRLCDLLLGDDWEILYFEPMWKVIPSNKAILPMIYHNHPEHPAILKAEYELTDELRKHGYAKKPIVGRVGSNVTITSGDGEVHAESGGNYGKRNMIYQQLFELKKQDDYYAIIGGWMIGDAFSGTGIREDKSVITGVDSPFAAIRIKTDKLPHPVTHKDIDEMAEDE

SMILES | activity at 30 µM [1] | solubility kinetic at 10 s [2] | solubility thermodynamic at 72 h [3] | viability at 20 µM [8] | also measured
CON=C1CCC(=O)N(CC(=O)N2CCCC2)c2ccccc21 (mixture of isomers) [5c, (E/Z)-5-(Methoxyimino)-1-[2-oxo-2-(pyrrolidin-1-yl)ethyl]-1,3,4,5-tetrahydro-2H-benzo[b]azepin-2-one] | 86.9 ± 3.6% | > 0.00398 M | 0.0263 M | – | –
CNCCNC(=O)CN1C(=O)Cc2c([nH]c3ccc(Br)cc23)-c2ccccc21 [1b] | – | – | – | – | CfTryS inhibition at 10 μM compound concentration [4]: 92%
CNCCNC(=O)CN1C(=O)Cc2c([nH]c3ccc(Br)cc23)-c2ccc(Cl)cc21 [1c] | – | – | – | – | EC50 [5]: 4.3 ± 0.7 µM; inhibition mechanism on LiTryS (LiTryS): competitive to Spd and Gsp, and uncompetitive to ATP and GSH; TbTryS activity [% at 30 μM] ([6]; 30 μM, displayed for comparison): 41.0 ± 6.0%; IC50 ([6]; used as inhibition control, read-out: concentration that inhibited 50% TryS activity (TbTryS)): 30 µM
NCCNC(=O)CN1C(=O)Cc2c([nH]c3ccc(Br)cc23)-c2ccc(Cl)cc21 [1d] | – | – | – | – | IC50 [7]: 0.3 µM
O=C(CN1C(=O)CCCc2ccccc21)N1CCCC1 [2j, 1-[2-Oxo-2-(pyrrolidin-1-yl)ethyl]-1,3,4,5-tetrahydro-2H-benzo[b]-azepin-2-one] | 100 ± 6.6% | > 0.00398 M | > 0.049 M | – | –
Cl.Cl.O=C(CN1C(=O)CCCc2ccccc21)NCCN1CCNCC1 [2o, 2-(2-Oxo-2,3,4,5-tetrahydro-1H-benzo[b]azepin-1-yl)-N-[2-(piperazin-1-yl)ethyl]acetamide dihydrochloride] | 98.8 ± 18.7% | > 0.001 M | > 0.248 M | 98.4 ± 11.8% | –
CC1(C)CCc2ccccc2N(CC(=O)NCCN2CCNCC2)C1=O.Cl.Cl [3d, 2-(3,3-Dimethyl-2-oxo-2,3,4,5-tetrahydro-1H-benzo[b]azepin-1-yl)-N-[2-(piperazin-1-yl)ethyl]acetamide dihydrochloride] | 100 ± 5.1% | > 0.002 M | > 0.114 M | 78.1 ± 14.4% | –
Cl.Cl.O=C(CN1C(=O)Cc2ccccc2-c2ccccc21)NCCN1CCNCC1 [4d, 2-(6-Oxo-6,7-dihydro-5H-dibenzo[b,d]azepin-5-yl)-N-[2-(piperazin-1-yl)ethyl]acetamide dihydrochloride] | 99.5 ± 3.1% | > 0.0002 M | > 0.0562 M | 89.5 ± 2.8% | –
CN1CCN(CCCN2c3ccccc3Sc3ccc(Cl)cc32)CC1 [prochlorperazine] | – | – | – | – | mode of TryS inhibition (TryS): Spd competitive behaviour

Source: article PMC10688702, “The indole motif is essential for the antitrypanosomal activity of N^5-substituted paullones” (PLOS ONE, 2023)
